Measured values as given in PubChem BioAssay (NCI).
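Method: 48-hour compound exposure of cells in 96-well plates, five concentrations, linear interpolation of endpoints. TGI is the concentration that stops growth completely.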

How the values were obtained:
Assay in all cases: inhibition of tumour cell growth, NCI panel, 48 h
NCI-H23 lung = system: NCI-H23 lung
SN12C renal = system: SN12C renal
MALME-3M melanoma = system: MALME-3M melanoma
HCC-2998 colon = system: HCC-2998 colon
OVCAR-8 ovarian = system: OVCAR-8 ovarian
OVCAR-4 ovarian = system: OVCAR-4 ovarian
UACC-62 melanoma = system: UACC-62 melanoma
DMS 273 small cell lung = system: DMS 273 small cell lung
786-0 renal = system: 786-0 renal
XF 498 CNS = system: XF 498 CNS
KM12 colon = system: KM12 colon
M14 melanoma = system: M14 melanoma
DMS 114 small cell lung = system: DMS 114 small cell lung
SF-268 CNS = system: SF-268 CNS
HL-60(TB) leukemia = system: HL-60(TB) leukemia
SF-295 CNS = system: SF-295 CNS
SNB-75 CNS = system: SNB-75 CNS
HOP-62 NSCLC = system: HOP-62 NSCLC
DLD-1 colon = system: DLD-1 colon
CAKI-1 renal = system: CAKI-1 renal
UACC-257 melanoma = system: UACC-257 melanoma
M19-MEL melanoma = system: M19-MEL melanoma
A498 renal = system: A498 renal
SNB-19 CNS = system: SNB-19 CNS
EKVX NSCLC = system: EKVX NSCLC
UO-31 renal = system: UO-31 renal
NCI-H226 lung = system: NCI-H226 lung
SF-539 CNS = system: SF-539 CNS
OVCAR-3 ovarian = system: OVCAR-3 ovarian
COLO 205 colon = system: COLO 205 colon
RPMI-8226 leukemia = system: RPMI-8226 leukemia
CCRF-CEM leukemia = system: CCRF-CEM leukemia
MOLT-4 leukemia = system: MOLT-4 leukemia
IGROV1 ovarian = system: IGROV1 ovarian
SK-OV-3 ovarian = system: SK-OV-3 ovarian
RXF-631 renal = system: RXF-631 renal
K-562 leukemia = system: K-562 leukemia
HOP-92 NSCLC = system: HOP-92 NSCLC
A549 NSCLC = system: A549 NSCLC
NCI-H522 lung = system: NCI-H522 lung
SK-MEL-28 melanoma = system: SK-MEL-28 melanoma
SK-MEL-2 melanoma = system: SK-MEL-2 melanoma
TK-10 renal = system: TK-10 renal
HT29 colon = system: HT29 colon
HCT-116 colon = system: HCT-116 colon
LXFL 529 NSCLC = system: LXFL 529 NSCLC
SW-620 colon = system: SW-620 colon
SR leukemia = system: SR leukemia
ACHN renal = system: ACHN renal
HCT-15 colon = system: HCT-15 colon
LOX IMVI melanoma = system: LOX IMVI melanoma
KM20L2 colon = system: KM20L2 colon
SK-MEL-5 melanoma = system: SK-MEL-5 melanoma
U251 CNS = system: U251 CNS

Measured: TGI

COc1ccc([C@@H]2C[C@@H]3C(=O)OC(=O)[C@@H]3c3c2c2ccccc2n3C)cc1
not listed: ACHN renal | HCT-15 colon | LOX IMVI melanoma | KM20L2 colon | SK-MEL-5 melanoma | U251 CNS
> 100 µM: all other assays above

O=C1c2ccccc2C(=O)N1C/C=N/NS(=O)(=O)c1ccc(F)cc1
not listed: M14 melanoma | HOP-62 NSCLC | A498 renal | OVCAR-3 ovarian | SK-OV-3 ovarian | HOP-92 NSCLC | SK-MEL-28 melanoma | HT29 colon
> 100 µM: all other assays above
